As usually defined, the MIC is the smallest concentration in the dilution series that meets the test's criterion for growth inhibition.

The structures appear in SMILES notation. Values after ≈ are worked out from the molar mass of the structure shown. Read-outs that look alike come from different tables or passages of the source.

One experiment deals with S. aureus ATCC 13709. As to the kind of experiment: MIC, S. aureus ATCC 13709. Type of experiment: cell-based. The note with it: for MIC: Staphylococcus aureus.
Another experiment concerns E. coli ATCC 25922. Description: MIC, E. coli ATCC 25922. The settings on record: for MIC: Escherichia coli. Type of experiment: cell-based.
Setting [1] is: S. aureus, Alamar Blue read after overnight incubation at 35° C.
Where [2] appears, read: E. coli, Alamar Blue read after overnight incubation at 35° C.
The mark [3] stands for this setting: ATCC13709, Table 16, new R4 substituents, read-out: SA MIC.
[4] abbreviates: ATCC25922, Table 16, new R4 substituents, EC8 not defined, read-out: EC8 MIC.
Where [5] appears, read: ATCC13709, S. aureus, Alamar Blue read after overnight incubation at 35° C., read-out: MIC Sa.
Where [6] appears, read: ATCC25922, E. coli, Alamar Blue read after overnight incubation at 35° C., read-out: MIC Ec.

For `CNc1cc(F)c(Cl)c2c1[nH]c1nc(Oc3cnc4ccnn4c3)nc(N3CC4(CC[C@]4(C)N)C3)c12` [Compound 10.90], the MIC Sa against S. aureus ATCC 13709 (Table 18, Sa) was no more than 0.5 µg/mL. In the experiment on E. coli ATCC 25922 (Table 18, Ec), this compound showed an MIC Ec of no more than 0.5 µg/mL.
`CCc1cc(F)cc2c1[nH]c1nc(Oc3cncnc3)nc(N3CC4CC(N)C4C3)c12` (stereo not drawn) [Compound 2.5]: in the experiment with S. aureus ATCC 13709 (setting [1]), the “MIC Sa” value was no more than 0.5 µg/mL. For the same compound, the “MIC Ec” value with E. coli ATCC 25922 (setting [2]) was found to be 2 µg/mL (≈ 4.77 µM).
As to `CNc1cc(F)cc2c1[nH]c1nc(Oc3cnc(C)nc3)nc(NCCN)c12`, the MIC in the experiment on S. aureus ATCC 13709 (setting [3]) was 4 µg/mL (≈ 10.5 µM); in the experiment with E. coli ATCC 25922 (setting [4]), 16 µg/mL (≈ 41.8 µM).
As for `CNc1cc(F)cc2c1[nH]c1nc(Cc3cncnc3)nc(N3C[C@H](N)C4(CC4)C3)c12`, the SA MIC with S. aureus ATCC 13709 (Table 11, compounds wherein L = CH2) was no more than 0.5 µg/mL. Also, the EC8 MIC in the experiment with E. coli ATCC 25922 (Table 11, L = CH2, EC8 not defined) was 1 µg/mL.
With `CNc1cc(F)cc2c1[nH]c1nc(Oc3cnc4ccoc4c3)nc(N3CCC(C)(CN)C3)c12` (stereo not drawn), the values for the MIC in the experiment on S. aureus ATCC 13709 (setting [3]) and in the experiment with E. coli ATCC 25922 (setting [4]) were no more than 0.5 µg/mL and 0.5 µg/mL (≈ 1.08 µM), respectively.
For `CNc1cc(F)cc2c1[nH]c1nc(Nc3cnc4c(c3)nnn4C(C)C)nc(N3C[C@H]4CC3C[C@H]4N)c12`, in the experiment on S. aureus ATCC 13709 (Table 13, L = NH), the SA MIC is no more than 0.5 µg/mL. This compound registered an EC MIC in the experiment with E. coli ATCC 25922 (Table 13, L = NH) of 1 µg/mL.
Compound `CNc1cc(F)cc2c1[nH]c1nc(Oc3cnc4scnc4c3)nc(N3C[C@H]4C[C@@H]3C[C@H]4N)c12` [Compound 10.34] gave an MIC Sa with S. aureus ATCC 13709 (Table 18, Sa) of no more than 0.5 µg/mL. The same compound yielded an MIC Ec against E. coli ATCC 25922 (Table 18, Ec) of no more than 0.5 µg/mL.
As for `CNc1ccc(C)c2c1[nH]c1nc(Sc3cnc4ccc[n+]([O-])c4c3)nc(N3CC(N)C4(CC4)C3)c12` (stereo not drawn) [Compound 1.72], the MIC was no more than 0.5 µg/mL in the experiment with S. aureus ATCC 13709 (setting [5]) and 1 µg/mL (≈ 2.01 µM) with E. coli ATCC 25922 (setting [6]).
As for `CNc1cc(F)cc2c1[nH]c1nc(Oc3cnc(C#N)c(C)c3)nc(N3CC4CC3C[C@@H]4N)c12` (stereo partly drawn) [Compound 4.435], the MIC with S. aureus ATCC 13709 (setting [5]) and in the experiment on E. coli ATCC 25922 (setting [6]) was no more than 0.5 µg/mL each time.
Turning to `CCc1cc(F)cc2c1[nH]c1nc(Oc3cnc(C)nc3)nc(N3CC(N)C4(CC4)C3)c12` (stereo not drawn) [Compound 2.3], the “MIC Sa” value against S. aureus ATCC 13709 (setting [1]) is 1 µg/mL (≈ 2.31 µM). In the experiment with E. coli ATCC 25922 (setting [2]), the “MIC Ec” value is 16 µg/mL (≈ 36.9 µM).
Consider `CNc1cc(F)cc2c1[nH]c1nc(Oc3cnc(C)nc3)nc(-c3cncc(N)c3)c12` [Compound 4.450], for which the MIC was no more than 0.5 µg/mL with S. aureus ATCC 13709 (setting [5]) and 2 µg/mL (≈ 4.8 µM) with E. coli ATCC 25922 (setting [6]).
With `CNc1cccc2c1[nH]c1nc(Oc3cncnc3)cc(N3CC4C(C3)C4NC(=O)CN)c12` (stereo not drawn) [Compound 3.18], the minimal inhibitory concentration (MIC) in the experiment with S. aureus ATCC 13709 (setting [5]) is 4 µg/mL (≈ 9 µM); in the experiment on E. coli ATCC 25922 (setting [6]), greater than 16 µg/mL.
On to `CNc1cccc2c1[nH]c1nc(Sc3cnc4cccnc4c3)nc(N3CC4CNCC4C3)c12` (stereo not drawn) [Compound 1.55], for which the minimum inhibitory concentration (MIC) in the experiment with S. aureus ATCC 13709 (setting [5]) was 1 µg/mL (≈ 2.13 µM); in the experiment with E. coli ATCC 25922 (setting [6]) it was 8 µg/mL (≈ 17.1 µM).
Take `CNc1cc(F)cc2c1[nH]c1nc(Oc3cnc(NCC4CCCO4)nc3)nc(N3C[C@H](N)C4(CC4)C3)c12` (stereo partly drawn) [Compound 4.406]: the “MIC Sa” value in the experiment on S. aureus ATCC 13709 (setting [1]) was no more than 0.5 µg/mL. Moreover, in the experiment on E. coli ATCC 25922 (setting [2]), the “MIC Ec” value came to 1 µg/mL (≈ 1.92 µM).
Take `CNc1cc(F)c(Cl)c2c1[nH]c1nc(Oc3cnc([C@@H](C)O)nc3)nc(N3CC4(CC[C@@H]4N)C3)c12` [Compound 10.88]: the MIC Sa against S. aureus ATCC 13709 (Table 18, Sa) is no more than 0.5 µg/mL. In addition, the MIC Ec with E. coli ATCC 25922 (Table 18, Ec) is no more than 0.5 µg/mL.
For `CNc1cc(F)cc2c1[nH]c1nc(Oc3cnc4c(F)cnn4c3)nc(N3C[C@H]4C[C@@H]3C[C@H]4N)c12` [Compound 10.35], the MIC Sa in the experiment with S. aureus ATCC 13709 (Table 18, Sa) was no more than 0.5 µg/mL. The MIC Ec in the experiment with E. coli ATCC 25922 (Table 18, Ec) was no more than 0.5 µg/mL.
Regarding `CNc1cc(F)cc2c1[nH]c1nc(Oc3cnc(C4CC4)nc3)nc(N3CC4CC4(CN)C3)c12` (stereo not drawn) [Compound 4.246], the “MIC Sa” value against S. aureus ATCC 13709 (setting [1]) is no more than 0.5 µg/mL. In the experiment with E. coli ATCC 25922 (setting [2]), the “MIC Ec” value was no more than 0.5 µg/mL.
On to `CNc1cc(F)cc2c1[nH]c1nc(Oc3ccc4c(c3)C(=O)NC4)nc(N3CC(N)C4(CC4)C3)c12` (stereo not drawn) [Compound 4.265], for which the “MIC Sa” value with S. aureus ATCC 13709 (setting [1]) was no more than 0.5 µg/mL. The “MIC Ec” value in the experiment on E. coli ATCC 25922 (setting [2]) turned out to be 4 µg/mL (≈ 8.45 µM).
Taken in the same sequence, the figures for `CNc1cc(F)cc2c1[nH]c1nc(Oc3cnc(C)nc3)nc(-c3cncc(F)c3)c12` [Compound 4.417] were no more than 0.5 µg/mL and 1 µg/mL (≈ 2.38 µM).
`CNc1cc(F)cc2c1[nH]c1nc(Sc3nncs3)nc(N3C[C@H]4C[C@@H]3C[C@H]4N)c12` [Compound 10.11] registered an MIC Sa in the experiment with S. aureus ATCC 13709 (Table 18, Sa) of no more than 0.5 µg/mL. The MIC Ec with E. coli ATCC 25922 (Table 18, Ec) was no more than 0.5 µg/mL.
Turning to `CNc1cc(F)c2c3c1[nH]c1nc(Oc4cnc(N)nc4)nc(c13)-c1ccccc1NC2`, the SA MIC in the experiment on S. aureus ATCC 13709 (Table 12, Z is C and connected to R4) is no more than 0.5 µg/mL. In addition, the EC8 MIC in the experiment on E. coli ATCC 25922 (Table 12, Z is C and connected to R4, EC8 not defined) was greater than 16 µg/mL.

Values taken from US10865216B2, “Tricyclic Gyrase inhibitors” (MERCK SHARP & DOHME CORP., priority 2012, dated 2020).
